#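 96-well plates; 48 h exposure; 5 concentrations. Endpoints by linear interpolation between flanking doses. Not reached: highest tested concentration assigned. GI50 is the concentration that inhibits growth by half.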 Calls of active or inactive are those of the source. Cut-off read from the data, not from the text of the source: active = GI50 up to about 1.1 µM and inactive = higher.
# Legend:
# Assay in all cases: NCI anticancer screen, dose series, 48 h
# UACC-257 = system: UACC-257
# K562 = system: K562
# OVCAR-4 = system: OVCAR-4
# UO-31 = system: UO-31
# CCRF-CEM = system: CCRF-CEM
# DU-145 = system: DU-145
# OVCAR-3 = system: OVCAR-3
# OVCAR-8 = system: OVCAR-8
# SF-268 = system: SF-268
# T47D = system: T47D
# ACHN = system: ACHN
# HOP-62 = system: HOP-62
# LOX IMVI = system: LOX IMVI
# TK-10 = system: TK-10
# SNB-19 = system: SNB-19
# HCT-116 = system: HCT-116
# RPMI-8226 = system: RPMI-8226
# CAKI-1 = system: CAKI-1
# Malme-3M = system: Malme-3M
# HL-60 = system: HL-60
# MCF7 = system: MCF7
# SNB-75 = system: SNB-75
# EKVX = system: EKVX
# SF-539 = system: SF-539
# SR = system: SR
# HT-29 = system: HT-29
# SK-OV-3 = system: SK-OV-3
# IGROV-1 = system: IGROV-1
# NCI-H23 = system: NCI-H23
# MDA-MB-435 = system: MDA-MB-435
# M14 = system: M14
# NCI/ADR-RES = system: NCI/ADR-RES
# BT-549 = system: BT-549
# Hs-578T = system: Hs-578T
# COLO 205 = system: COLO 205
# SN12C = system: SN12C
# UACC-62 = system: UACC-62
# PC-3 = system: PC-3
# A549 = system: A549
# NCI-H460 = system: NCI-H460
# SF-295 = system: SF-295
# MOLT-4 = system: MOLT-4
# MDA-MB-231 = system: MDA-MB-231
# HCT-15 = system: HCT-15
# RXF 393 = system: RXF 393
# KM12 = system: KM12
# SW-620 = system: SW-620
# SK-MEL-28 = system: SK-MEL-28
# MDA-N = system: MDA-N
# U-251 = system: U-251
# OVCAR-5 = system: OVCAR-5
# SK-MEL-5 = system: SK-MEL-5
# HOP-92 = system: HOP-92
# NCI-H522 = system: NCI-H522
# NCI-H226 = system: NCI-H226
# 786-0 = system: 786-0
# A498 = system: A498
# SK-MEL-2 = system: SK-MEL-2
# HCC 2998 = system: HCC 2998
smiles,measurement,setting,value
Cc1ccc(Nc2n[nH]c(NS(=O)(=O)c3cc(C(=O)Nc4ccc(Cl)cc4)c(Cl)cc3S)n2)cc1,GI50,UACC-257,> 100 µM (inactive)
same,GI50,K562,> 100 µM (inactive)
same,GI50,OVCAR-4,> 100 µM (inactive)
same,GI50,UO-31,> 100 µM (inactive)
same,GI50,CCRF-CEM,> 100 µM (inactive)
same,GI50,DU-145,> 100 µM (inactive)
same,GI50,OVCAR-3,> 100 µM (inactive)
same,GI50,OVCAR-8,> 100 µM (inactive)
same,GI50,SF-268,> 100 µM (inactive)
same,GI50,T47D,63.2 µM (inactive)
same,GI50,ACHN,> 100 µM (inactive)
same,GI50,HOP-62,> 100 µM (inactive)
same,GI50,LOX IMVI,48.4 µM (inactive)
same,GI50,TK-10,> 100 µM (inactive)
same,GI50,SNB-19,> 100 µM (inactive)
same,GI50,HCT-116,> 100 µM (inactive)
same,GI50,RPMI-8226,> 100 µM (inactive)
same,GI50,CAKI-1,> 100 µM (inactive)
same,GI50,Malme-3M,50.5 µM (inactive)
same,GI50,HL-60,33.7 µM (inactive)
same,GI50,MCF7,> 100 µM (inactive)
same,GI50,SNB-75,> 100 µM (inactive)
same,GI50,EKVX,35 µM (inactive)
same,GI50,SF-539,> 100 µM (inactive)
same,GI50,SR,> 100 µM (inactive)
same,GI50,HT-29,89.9 µM (inactive)
same,GI50,SK-OV-3,> 100 µM (inactive)
same,GI50,IGROV-1,> 100 µM (inactive)
same,GI50,NCI-H23,> 100 µM (inactive)
same,GI50,MDA-MB-435,> 100 µM (inactive)
same,GI50,M14,> 100 µM (inactive)
same,GI50,NCI/ADR-RES,> 100 µM (inactive)
same,GI50,BT-549,> 100 µM (inactive)
same,GI50,Hs-578T,84.9 µM (inactive)
same,GI50,COLO 205,> 100 µM (inactive)
same,GI50,SN12C,> 100 µM (inactive)
same,GI50,UACC-62,> 100 µM (inactive)
same,GI50,PC-3,> 100 µM (inactive)
same,GI50,A549,99.8 µM (inactive)
same,GI50,NCI-H460,36 µM (inactive)
same,GI50,SF-295,> 100 µM (inactive)
same,GI50,MOLT-4,> 100 µM (inactive)
same,GI50,MDA-MB-231,> 100 µM (inactive)
same,GI50,HCT-15,> 100 µM
same,GI50,RXF 393,62.2 µM (inactive)
same,GI50,KM12,> 100 µM (inactive)
same,GI50,SW-620,> 100 µM (inactive)
same,GI50,SK-MEL-28,> 100 µM (inactive)
same,GI50,MDA-N,> 100 µM (inactive)
same,GI50,U-251,54.8 µM (inactive)
same,GI50,OVCAR-5,> 100 µM (inactive)
same,GI50,SK-MEL-5,> 100 µM (inactive)
C[C@]12CC[C@@H]3c4ccc(O)cc4CC[C@H]3[C@@H]1CC[C@@H]2OP(=O)(O)O,GI50,UACC-257,> 100 µM (inactive)
same,GI50,K562,> 100 µM (inactive)
same,GI50,OVCAR-4,> 100 µM (inactive)
same,GI50,UO-31,> 100 µM (inactive)
same,GI50,CCRF-CEM,> 100 µM (inactive)
same,GI50,DU-145,> 100 µM (inactive)
same,GI50,OVCAR-3,> 100 µM (inactive)
same,GI50,OVCAR-8,> 100 µM (inactive)
same,GI50,SF-268,> 100 µM (inactive)
same,GI50,T47D,> 100 µM (inactive)
same,GI50,ACHN,> 100 µM (inactive)
same,GI50,HOP-92,> 100 µM (inactive)
same,GI50,HOP-62,> 100 µM (inactive)
same,GI50,LOX IMVI,> 100 µM (inactive)
same,GI50,TK-10,> 100 µM (inactive)
same,GI50,SNB-19,> 100 µM (inactive)
same,GI50,NCI-H522,> 100 µM (inactive)
same,GI50,HCT-116,> 100 µM (inactive)
same,GI50,RPMI-8226,> 100 µM (inactive)
same,GI50,CAKI-1,> 100 µM (inactive)
same,GI50,Malme-3M,> 100 µM (inactive)
same,GI50,HL-60,> 100 µM (inactive)
same,GI50,MCF7,> 100 µM (inactive)
same,GI50,SNB-75,> 100 µM (inactive)
same,GI50,EKVX,> 100 µM (inactive)
same,GI50,NCI-H226,> 100 µM (inactive)
same,GI50,SF-539,> 100 µM (inactive)
same,GI50,786-0,> 100 µM (inactive)
same,GI50,HT-29,> 100 µM (inactive)
same,GI50,A498,> 100 µM (inactive)
same,GI50,SK-OV-3,> 100 µM (inactive)
same,GI50,IGROV-1,> 100 µM (inactive)
same,GI50,NCI-H23,> 100 µM (inactive)
same,GI50,MDA-MB-435,> 100 µM (inactive)
same,GI50,M14,> 100 µM (inactive)
same,GI50,NCI/ADR-RES,> 100 µM (inactive)
same,GI50,BT-549,> 100 µM (inactive)
same,GI50,SK-MEL-2,> 100 µM (inactive)
same,GI50,Hs-578T,> 100 µM (inactive)
same,GI50,COLO 205,> 100 µM (inactive)
same,GI50,SN12C,> 100 µM (inactive)
same,GI50,HCC 2998,> 100 µM (inactive)
same,GI50,UACC-62,> 100 µM (inactive)
same,GI50,PC-3,> 100 µM (inactive)
same,GI50,A549,> 100 µM (inactive)
same,GI50,NCI-H460,> 100 µM (inactive)
same,GI50,SF-295,> 100 µM (inactive)
same,GI50,MOLT-4,> 100 µM (inactive)
same,GI50,MDA-MB-231,> 100 µM (inactive)
same,GI50,HCT-15,> 100 µM
same,GI50,RXF 393,> 100 µM (inactive)
same,GI50,KM12,> 100 µM (inactive)
same,GI50,SW-620,> 100 µM (inactive)
same,GI50,SK-MEL-28,> 100 µM (inactive)
same,GI50,MDA-N,> 100 µM (inactive)
same,GI50,U-251,> 100 µM (inactive)
same,GI50,OVCAR-5,> 100 µM (inactive)
same,GI50,SK-MEL-5,> 100 µM (inactive)

# Reference: ChEMBL document CHEMBL1201862, “PubChem BioAssay data set” (2004)
